The record followed here is ChEMBL document CHEMBL5236569, “Emodin lows NPC1L1-mediated cholesterol absorption as an uncompetitive inhibitor” (2022).

Each structure is given as a SMILES string. Calls of active or inactive are those of the source. No cut-off for these calls is given here.

A short description of test [1]: Inhibition of cholesterol uptake in human Caco-2 cells at 25 uM relative to control. The test is classed as functional.
Test [2] is described as follows: Inhibition of cholesterol uptake in human HepG2 cells at 100 uM relative to control. It counts as functional.
Test [3] in a line: Inhibition of cholesterol uptake in human Caco-2 cells at 100 uM relative to control. It counts as functional.
A further test relates to HepG2. In words: Effect on NPC1L1 expression in human HepG2 cells at 1 to 100 uM incubated for 24 hrs. It counts as functional, cell-based. Conditions: dose 1-100 µM.
Test [4] addresses T1, NPC1-like intracellular cholesterol transporter 1 (Homo sapiens) (UniProt Q9UHC9).
T1 sequence (whole entry): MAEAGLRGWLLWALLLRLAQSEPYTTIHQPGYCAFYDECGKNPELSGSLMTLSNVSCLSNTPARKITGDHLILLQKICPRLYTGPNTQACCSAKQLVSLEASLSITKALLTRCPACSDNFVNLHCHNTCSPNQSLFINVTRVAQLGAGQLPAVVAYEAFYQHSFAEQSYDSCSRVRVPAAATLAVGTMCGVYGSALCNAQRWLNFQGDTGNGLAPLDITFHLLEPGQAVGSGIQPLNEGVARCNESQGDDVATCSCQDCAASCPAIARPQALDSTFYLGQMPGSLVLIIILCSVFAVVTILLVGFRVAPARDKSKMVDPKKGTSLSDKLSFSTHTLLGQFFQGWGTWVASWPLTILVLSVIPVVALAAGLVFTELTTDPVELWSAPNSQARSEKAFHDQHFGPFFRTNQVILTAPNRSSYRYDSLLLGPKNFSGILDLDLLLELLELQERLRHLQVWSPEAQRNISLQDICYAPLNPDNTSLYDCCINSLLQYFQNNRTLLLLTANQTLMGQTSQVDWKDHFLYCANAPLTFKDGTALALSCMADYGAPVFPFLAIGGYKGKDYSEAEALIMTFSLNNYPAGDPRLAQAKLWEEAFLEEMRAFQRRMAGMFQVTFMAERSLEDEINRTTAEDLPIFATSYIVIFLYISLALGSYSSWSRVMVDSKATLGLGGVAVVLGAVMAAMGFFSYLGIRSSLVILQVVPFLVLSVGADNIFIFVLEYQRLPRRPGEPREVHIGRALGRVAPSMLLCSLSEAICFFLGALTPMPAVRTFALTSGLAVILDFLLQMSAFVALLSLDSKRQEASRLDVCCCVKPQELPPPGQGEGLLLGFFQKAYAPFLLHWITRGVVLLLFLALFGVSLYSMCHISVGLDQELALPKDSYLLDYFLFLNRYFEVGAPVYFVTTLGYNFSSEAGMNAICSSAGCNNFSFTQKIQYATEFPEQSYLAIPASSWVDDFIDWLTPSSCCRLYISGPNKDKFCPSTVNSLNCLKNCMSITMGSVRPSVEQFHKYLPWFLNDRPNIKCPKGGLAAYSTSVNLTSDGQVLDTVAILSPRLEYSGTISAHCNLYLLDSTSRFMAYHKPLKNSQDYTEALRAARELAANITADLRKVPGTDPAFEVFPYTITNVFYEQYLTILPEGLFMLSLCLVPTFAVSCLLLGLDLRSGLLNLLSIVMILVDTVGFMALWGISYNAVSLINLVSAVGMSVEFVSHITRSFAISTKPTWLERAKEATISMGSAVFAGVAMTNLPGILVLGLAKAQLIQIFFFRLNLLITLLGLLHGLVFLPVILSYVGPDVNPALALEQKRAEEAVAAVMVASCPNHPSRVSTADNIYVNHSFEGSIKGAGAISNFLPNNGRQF
The experiment in a line: […] inhibition of NPC1L1 (unknown origin) assessed as decrease in Km at upto 150 uM by Lineweaver-burk double inverse plot analysis.

A short description of test [5]: Inhibition of cholesterol uptake in human HepG2 cells at 25 uM relative to control. The test is classed as functional.
Test [6] can be described thus: Inhibition of cholesterol uptake in human HepG2 cells at 50 uM relative to control. The test is classed as functional.
Test [7] in a line: Inhibition of cholesterol uptake in human HepG2 cells at 75 uM relative to control. The test is classed as functional.
Test [8] in a line: Inhibition of cholesterol uptake in human Caco-2 cells at 50 uM relative to control. It counts as functional.
Test [9] is described as follows: Inhibition of cholesterol uptake in human Caco-2 cells at 12.5 uM relative to control. The test is classed as functional.
Test [10] is described as follows: Inhibition of cholesterol uptake in human Caco-2 cells at 75 uM relative to control. It counts as functional.
Test [11] has as its target T1, NPC1-like intracellular cholesterol transporter 1 (Homo sapiens). The experiment in a line: Inhibition of NPC1L1in human HepG2 cells assessed as increase in intracellular cholesterol content incubated for 60 mins by filipin dye based confocal microscopy analysis. The test is classed as cell-based.
The nature of test [12]: Inhibition of cholesterol uptake in human HepG2 cells at 12.5 uM relative to control. The test is classed as functional.
Test [13] deals with T1, NPC1-like intracellular cholesterol transporter 1 (Homo sapiens). The experiment in a line: Inhibition of NPC1L1in human HepG2 cells assessed as reduction in intracellular cholesterol content incubated for 60 mins by filipin dye based confocal microscopy analysis. It counts as cell-based.
Test [14] shares this target. The experiment in a line: […] inhibition of NPC1L1 (unknown origin) assessed as decrease in Vmax at upto 150 uM by Lineweaver-burk double inverse plot analysis.

For `Cc1cc(O)c2c(c1)C(=O)c1cc(O)cc(O)c1C2=O` [EMODIN], the values for the inhibition at 25 µM in test [1] and in [5] were 39.6% and 41.6%, respectively. Moreover, the inhibition (usually the drop in the measured response relative to a control, in per cent) at 100 µM was 27% in test [2] and 29% in test [3]. Further, the result (in the test on HepG2; in test [4]; in test [11]; in test [13]; in test [14]) was Active. The inhibition at 50 µM came out at 33.6% in test [6] and 32.3% in test [8]. Moreover, the inhibition at 75 µM in test [7] came out at 31.3%; in test [10] it was 28%. For the same molecule, the inhibition at 12.5 µM in test [9] stood at 44.3%; in test [12] it was 52.6%.

In the case of `O=C1[C@H](CC[C@H](O)c2ccc(F)cc2)[C@@H](c2ccc(O)cc2)N1c1ccc(F)cc1` [EZETIMIBE], the figures for the inhibition at 100 µM in [2] and in test [3] were 48.3% and 70%, respectively. The result in [11] was Active. Also, the result in test [13] was inactive.
